From patent US6946465B2, “Immunosuppressive effects of pteridine derivatives” (4 AZA Bioscience NV, priority 1999, dated 2005)

How the values were obtained:
Format in all cases: cell-based, human
[1] = test system: peripheral blood mononuclear cells (PBMC) with allogeneic PBMC or RPMI1788 stimulator cells; experiment: Mixed lymphocyte reaction (MLR) test, [3H]-thymidine incorporation; conditions: Table 1; 5 days incubation + 16 h thymidine
Text: (§1) Various models may be used for testing an immunosuppressive effect. In vivo, for example, different transplantation models are available. They are strongly influenced by different immunogenicities, depending on the donor and recipient species used and depending on the nature of the transplanted organ. The survival time of transplanted organs can thus be used to measure the suppression of the immune response. In vitro, the most used models are lymphocyte activation tests. Usually activation is measured via lymphocyte proliferation. Inhibition of proliferation thus always means immunosuppression under the experimental conditions applied. There exist different stimuli for lymphocyte activation: • a) co-culture of lymphocytes of […] (mixed lymphocyte reaction, hereinafter referred as MLR) in a so-called mixed lymphocyte culture test: lymphocytes expressing different minor and major antigens of the HLA-DR type (=alloantigens) activate each other non-specifically. • b) a CD3 assay here there is an activation of the T-lymphocytes via an exogenously added antibody (OKT3).
(§2) All reagents were dissolved in 0.5 ml dimethylsulfoxide (hereinafter referred as DMSO) and further diluted in culture medium before use for the following in vitro experiments. The commercially available culture medium consisted of RPMI-1640+10% foetal calf serum (FCS).
Peripheral blood mononuclear cells (hereinafter referred as PBMC) were isolated from heparinized peripheral blood by density gradient centrifugation over Lymphoprep (Nycomed, Maorstua, Norway). Allogeneic PBMC or Eppstein-Barr Virus-transformed human B cells [commercially available under the trade name RPM11788 (ATCC name CCL156)] which strongly express B7-1 and B7-2 antigens were used as stimulator cells after irradiation with 30 Gy. MLR was performed in triplicate wells. After 5 days incubation at 37° C., 1 μCi [^3 H]-thymidine was added to each cup. After a further 16 hours incubation, cells were harvested and counted in a β-counter. Inhibition of proliferation by a compound (drug) described in some of the previous examples was counted using the formula: [formula] wherein cpm is the thymidine count per minute. Assays for CD3 and CD 28

[2] = test system: highly purified T cells stimulated by immobilized anti-CD3 mAb; experiment: CD3 assay: T-cell proliferation stimulated by anti-CD3 mAb + PMA (BrdU); conditions: Table 1; anti-CD3 mAb + PMA 0.5 ng/ml, 48 h; read-out: CD 3 IC50
Text: as §1, §2
(§3) T cells were purified by removing non-T cells. Briefly, monocytes were removed by cold agglutination. The resulting lymphoid cells were further purified by a cell enrichment immunocolumn [Cellect Human T commercially available from Biotex, Edmonton, Alberta, Canada)] by a process of negative selection.
(§4) Highly purified T cells (10^6/ml) were stimulated by immobilized anti-CD3 or anti-CD28 monoclonal antibodies (hereinafter referred as mAb) in the presence of PMA. Anti-CD3 mAb (available from CLB, Amsterdam, Netherlands) were fixed on the 96-microwell plates by incubating the wells with 50 μl of mAb solution (1/800 dilution in culture medium). For anti-CD28 mAb (available from CLB, Amsterdam, Netherlands) 50 μl (1/650 dilution in culture medium) was added directly to the wells. Further, a 20 μl phorbol myristate acetate (hereinafter referred as PMA (commercially available from Sigma, St. Louis, Mo., USA) solution (final concentration: 0.5 ng/ml) was added. Subsequently, 20 μl of a compound described in some of the previous examples were added by serial dilution in triplicate wells. Finally 100 μl of the T-cell suspension (10^6/ml) was added. After 48-hour incubation at 37° C. in 5% CO2 20 μl of a bromo-deuridine (hereinafter referred as BrdU) 100 μM solution (commercially available as Cell Proliferation Elisa from Boehringer-Mannheim Belgium) was added to each well. After a further overnight incubation, T-cell proliferation was measured using a colorimetric immunoassay for qualification of cell proliferation based on the incorporation of BrdU during DNA synthesis. Optical density (hereinafter referred as OD) was measured by a Behring EL311 plate reader at 450 nm (reference wavelength: 690 nm). Inhibition of proliferation by a compound (drug) described in some of the previous examples was counted using the formula: [formula]

[3] = test system: highly purified T cells stimulated by anti-CD28 mAb; experiment: CD28 assay: T-cell proliferation stimulated by anti-CD28 mAb + PMA (BrdU); conditions: Table 1; anti-CD28 mAb + PMA 0.5 ng/ml, 48 h
Text: as §1, §2, §3, §4

| Compound | IC50 [1] [µM] | IC50 [2] [µM] | IC50 [3] [µM] |
| --- | --- | --- | --- |
| Cn1c(=O)c2nc(-c3ccccc3)c(Cl)nc2n(C)c1=O [Example 34, 7-chloro-1,3-dimethyl-6-phenyllumazine] | 3.75 | 0.08 | 0.07 |
| CCCCN(CCCC)c1nc2c(nc1C#N)c(=O)n(C)c(=O)n2C [Example 56, 6-cyano-7-dibutylamino-1,3-dimethyl-lumazine] | 12 | 152 | 116 |
| COC(=O)/C=C/c1cnc2c(=O)n(C)c(=O)n(C)c2n1 [Example 24, 7-[(E)-2-methoxycarbonylethenyl]-1,3-dimethyl-lumazine] | 15 | 12 | 12 |
| Cn1c(=O)c2nc(O)c(C=O)nc2n(C)c1=O [Example 46, 6-hydroxy-7-formyl-1,3-dimethyl-lumazine] | 72 | 104 | 80 |
| Cn1c(=O)c2nc(C(O)C[N+](=O)[O-])cnc2n(C)c1=O (stereo not drawn) [Example 17, 6-[(1-hydroxy-2-nitro)ethyl]-1,3-dimethyllumazine] | 90 | 25 | 15 |
| Cc1nc2c(nc1NCc1ccccc1)c(=O)n(C)c(=O)n2C [Example 73, 6-benzylamino-1,3,7-trimethyl-lumazine] | 44 | 92 | 128 |
| Cn1c(=O)c2nc(C#N)c(NCc3ccccc3)nc2n(C)c1=O [Example 53, 6-cyano-7-benzylamino-1,3-dimethyl-lumazine] | 140 | 140 | 104 |
| Cc1nc2c(nc1N1CCCC1)c(=O)n(C)c(=O)n2C [Example 74, 6-pyrrolidinyl-1,3,7-trimethyl-lumazine] | 140 | 92 | 128 |
| CCCCNc1nc2c(nc1C(=O)OCC)c(=O)n(C)c(=O)n2C [Example 60, 6-ethylcarboxylate-7-n-butylamino-1,3-dimethyl-lumazine] | 13 | 56 | 92 |
| COC(=O)C=C(OC)c1cnc2c(n1)c(=O)n(C)c(=O)n2C [Example 16] | 70 | 80 | 80 |
| CCCn1c(=O)c2nc(-c3ccccc3)c(O)nc2n(CCC)c1=O [Example 44, 7-hydroxy-6-phenyl-1,3-di-n-propyllumazine] | 120 | 80 | 70 |
| Cn1c(=O)c2nc(C(Cl)Cl)c(SCc3ccccc3)nc2n(C)c1=O [Example 71, 6-dichloromethyl-7-mercaptobenzyl-1,3-dimethyl-lumazine] | 56 | > 20 | > 20 |
| Cn1c(=O)c2nc(C(Cl)Cl)c(Cl)nc2n(C)c1=O [Example 50, 6-dichloromethyl-7-chloro-1,3-dimethyl-lumazine] | 4 | 9.5 | 9.5 |
| Cn1c(=O)c2nc(C#N)c(Cl)nc2n(C)c1=O [Example 47, 6-cyano-7-chloro-1,3-dimethyl-lumazine] | 104 | 15 | 12 |
| Cn1c(=O)[nH]c(=O)c2nc(-c3ccccc3)c(-c3ccccc3)nc21 [Example 41, 1-methyl-6,7-diphenyllumazine] | 35 | 25 | 25 |
| Cn1c(=O)c2ncc(/C=C/c3ccncc3)nc2n(C)c1=O [Example 22, 1,3-dimethyl-7-[(E)-2-(pyrid-4-yl)vinyl]lumazine] | 75 | 125 | 100 |
| CCOC(=O)c1nc2c(=O)n(C)c(=O)n(C)c2nc1NNc1ccccc1 [Example 64, 6-ethylcarboxylate-7-phenylhydrazino-1,3-dimethyl-lumazine] | 20 | 56 | 12 |
| COC(=O)C(Br)C(Br)c1cnc2c(n1)c(=O)n(C)c(=O)n2C (stereo not drawn) [Example 11, 6-(1,2-dibromo-2-(methoxycarbonyl)ethyl)-1,3-dimethyllumazine] | 12 | 0.55 | 0.08 |
| Cn1c(=O)c2nc(C=O)c(NCCO)nc2n(C)c1=O [Example 67, 6-formyl-7-hydroxyethylamino-1,3-dimethyl-lumazine] | 104 | 104 | 104 |
| Cn1c(=O)c2ncc(C(Br)=Cc3ccccc3)nc2n(C)c1=O [Example 28, 7-(1-bromo-2-phenyl)ethenyl-1,3-dimethyllumazine] | 2.7 | 2.4 | 2.7 |
| Cn1c(=O)c2nc(Cl)c(C#N)nc2n(C)c1=O [Example 51, 6-chloro-7-cyano-1,3-dimethyl-lumazine] | 116 | 56 | 56 |
| Cn1c(=O)c2nc(C=O)c(O)nc2n(C)c1=O [Example 45, 6-formyl-7-hydroxy-1,3-dimethyl-lumazine] | > 200 | 15.5 | 9 |
| CCOc1nc2c(nc1-c1ccccc1)c(=O)n(C)c(=O)n2C [Example 33, 7-ethoxy-1,3-dimethyl-6-phenyllumazine] | 40 | 100 | 70 |
| Cn1c(=O)c2nc(C=C[N+](=O)[O-])cnc2n(C)c1=O [Example 18, 1,3-dimethyl-6-[(2-nitro)ethenyl]lumazine] | 12 | 0.8 | 0.4 |
| CCOC(=O)c1nc2c(=O)n(C)c(=O)n(C)c2nc1NCC(C)(C)C [Example 61, 6-ethylcarboxylate-7-neopentylamino-1,3-dimethyl-lumazine] | 16 | 80 | 16 |
| Cn1c(=O)c2nc(C#N)c(NC3CCCCC3)nc2n(C)c1=O [Example 55, 6-cyano-7-cyclohexylamino-1,3-dimethyl-lumazine] | 15 | 92 | 92 |
| Cn1c(=O)c2nc(C=Cc3ccc(C(F)(F)F)cc3)cnc2n(C)c1=O [Example 78, 6-[2-(p-trifluoromethylphenyl)ethenyl]-1,3-dimethyllumazine] | 17 | > 200 | 164 |
| C=CCNc1nc2c(nc1C(=O)OCC)c(=O)n(C)c(=O)n2C [Example 62, 6-ethylcarboxylate-7-(2-propenylamino)-1,3-dimethyl-lumazine] | 60 | 92 | 56 |
| CC(C)Nc1nc2c(nc1C=O)c(=O)n(C)c(=O)n2C [Example 66, 6-formyl-7-isopropylamino-1,3-dimethyl-lumazine] | 92 | 68 | 92 |
| Cn1c(=O)c2nc(/C=C/C=Cc3ccccc3)cnc2n(C)c1=O [Example 9, 1,3-dimethyl-6-[(E)-4-(phenyl)butadienyl]lumazine] | 75 | 140 | 140 |
